Experimental data reported in ChEMBL document CHEMBL1124865, “Synthesis and biological evaluation of a series of parenteral 3'-quaternary ammonium cephalosporins” (J Med Chem, 1990).
In brackets after ≈: the same amount, converted by molar mass.

Tests used:
Format in all cases: functional
Enterobacter cloacae [1] = assay: Antibacterial activity against Enterobacter cloacae 265A
Escherichia coli [2] = assay: Antibacterial activity against Escherichia coli EC14
Enterobacter cloacae [3] = assay: Antibacterial activity against Enterobacter cloacae EB5
Escherichia coli [4] = assay: Antibacterial activity against Escherichia coli TEM
Klebsiella pneumoniae [5] = assay: microbe, parasite or virus in culture
Description: Antibacterial activity against Klebsiella pneumoniae 1082E

Klebsiella pneumoniae [6] = assay: Antibacterial activity against Klebsiella pneumoniae X26
Pseudomonas aeruginosa [7] = assay: In vivo efficacy against Pseudomonas aeruginosa infected mice treated at 1 hr and 5 hr post infection
Staphylococcus aureus [8] = assay: In vivo efficacy against Staphylococcus aureus infected mice treated at 1 hr and 5 hr post infection
Escherichia coli [9] = assay: In vivo efficacy against Escherichia coli infected mice treated at 1 hr and 5 hr post infection
Escherichia coli [10] = assay: In vivo efficacy against Escherichia coli infections in mice
Pseudomonas aeruginosa [11] = assay: In vivo efficacy against Pseudomonas aeruginosa infections in mice
Staphylococcus aureus [12] = assay: In vivo efficacy against Staphylococcus aureus infections in mice
Pseudomonas aeruginosa [13] = assay: Antibacterial activity against Pseudomonas aeruginosa X528
Pseudomonas aeruginosa [14] = assay: Antibacterial activity against Pseudomonas aeruginosa PS18
Staphylococcus aureus [15] = assay: Antibacterial activity against penicillin G resistance Staphylococcus aureus
Staphylococcus aureus [16] = assay: Antibacterial activity against penicillin G susceptible Staphylococcus aureus
Streptococcus pneumoniae = assay: Antibacterial activity against Streptococcus pneumoniae
Serratia marcescens = assay: Antibacterial activity against Serratia marcescens SE3
Streptococcus pyogenes = assay: Antibacterial activity against Streptococcus pyogenes
Enterococcus faecium = assay: Antibacterial activity against Enterococcus faecium
[17] = Enterobacter cloacae, read-out: MIC
[18] = Escherichia coli, read-out: MIC
[19] = Klebsiella pneumoniae, read-out: MIC
[20] = Pseudomonas aeruginosa, read-out: ED50
[21] = Staphylococcus aureus, read-out: ED50
[22] = Escherichia coli, read-out: ED50
[23] = Pseudomonas aeruginosa, read-out: MIC
[24] = Staphylococcus aureus, read-out: MIC
[25] = Streptococcus pneumoniae, read-out: MIC
[26] = Serratia marcescens, read-out: MIC
[27] = Streptococcus pyogenes, read-out: MIC
[28] = Enterococcus faecium, read-out: MIC

SMILES	MIC (Enterobacter cloacae [1]; [17]) [µg/mL]	MIC (Escherichia coli [2]; [18]) [µg/mL]	MIC (Enterobacter cloacae [3]; [17]) [µg/mL]	MIC (Escherichia coli [4]; [18]) [µg/mL]	MIC (Klebsiella pneumoniae [5]; [19]) [µg/mL]	MIC (Klebsiella pneumoniae [6]; [19]) [µg/mL]	ED50 (Pseudomonas aeruginosa [7]; [20]) [mg/kg]	ED50 (Staphylococcus aureus [8]; [21]) [mg/kg]	ED50 (Escherichia coli [9]; [22]) [mg/kg]	MIC (Escherichia coli [10]; [18]) [µg/mL]	MIC (Pseudomonas aeruginosa [11]; [23]) [µg/mL]	MIC (Staphylococcus aureus [12]; [24]) [µg/mL]	MIC (Pseudomonas aeruginosa [13]; [23]) [µg/mL]	MIC (Pseudomonas aeruginosa [14]; [23]) [µg/mL]	MIC (Staphylococcus aureus [15]; [24]) [µg/mL]	MIC (Staphylococcus aureus [16]; [24]) [µg/mL]	MIC (Streptococcus pneumoniae; [25]) [µg/mL]	MIC (Serratia marcescens; [26]) [µg/mL]	ED50 (Staphylococcus aureus [8]) [mg/kg]	ED50 (Escherichia coli [9]) [mg/kg]	other results
CO/N=C(\C(=O)N[C@@H]1C(=O)N2C(C(=O)[O-])=C(C[n+]3cccc(S(=O)(=O)O)c3)CS[C@H]12)c1csc(N)n1	> 128	0.06 (≈ 0.108 µM)	0.5 (≈ 0.902 µM)	0.5 (≈ 0.902 µM)	64 (≈ 115 µM)	0.125 (≈ 0.225 µM)	41.6	> 10	0.08	0.06 (≈ 0.108 µM)	64 (≈ 115 µM)	4 (≈ 7.21 µM)	8 (≈ 14.4 µM)	32 (≈ 57.7 µM)	8 (≈ 14.4 µM)	4 (≈ 7.21 µM)	0.06 (≈ 0.108 µM)	0.25 (≈ 0.451 µM)	–	–	MIC (Streptococcus pyogenes; [27]): 0.06 µg/mL (≈ 0.108 µM); MIC (Enterococcus faecium; [28]): > 128 µg/mL
CO/N=C(\C(=O)N[C@@H]1C(=O)N2C(C(=O)[O-])=C(C[n+]3ccccc3C)CS[C@H]12)c1csc(N)n1	128 (≈ 262 µM)	0.25 (≈ 0.512 µM)	2 (≈ 4.09 µM)	0.5 (≈ 1.02 µM)	32 (≈ 65.5 µM)	0.25 (≈ 0.512 µM)	12	2.7	< 0.16	0.06 (≈ 0.123 µM)	64 (≈ 131 µM)	2 (≈ 4.09 µM)	32 (≈ 65.5 µM)	64 (≈ 131 µM)	16 (≈ 32.7 µM)	16 (≈ 32.7 µM)	0.5 (≈ 1.02 µM)	1 (≈ 2.05 µM)	–	–	MIC (Streptococcus pyogenes; [27]): 0.25 µg/mL (≈ 0.512 µM); MIC (Enterococcus faecium; [28]): > 128 µg/mL
CO/N=C(\C(=O)N[C@@H]1C(=O)N2C(C(=O)[O-])=C(C[n+]3ccc(CC(=O)NO)cc3)CS[C@H]12)c1csc(N)n1 (stereo in doubt; 13)	–	–	–	–	–	–	–	–	–	–	–	–	–	–	–	–	–	–	>10	0.05	MIC (Enterobacter cloacae [1]): 128 µg/mL (≈ 234 µM); ED50 (Pseudomonas aeruginosa [7]): 31 mg/kg; MIC (Pseudomonas aeruginosa [11]): 64 µg/mL (≈ 117 µM); MIC (Staphylococcus aureus [12]): 8 µg/mL (≈ 14.6 µM); MIC (Pseudomonas aeruginosa [13]): 16 µg/mL (≈ 29.2 µM)
CO/N=C(\C(=O)N[C@@H]1C(=O)N2C(C(=O)[O-])=C(C[n+]3cccc4cc(O)ccc43)CS[C@H]12)c1csc(N)n1	16 (≈ 29.6 µM)	0.03 (≈ 0.0555 µM)	0.5 (≈ 0.925 µM)	0.03 (≈ 0.0555 µM)	4 (≈ 7.4 µM)	< 0.008	29	1	0.04	0.03 (≈ 0.0555 µM)	8 (≈ 14.8 µM)	1 (≈ 1.85 µM)	8 (≈ 14.8 µM)	8 (≈ 14.8 µM)	2 (≈ 3.7 µM)	1 (≈ 1.85 µM)	< 0.008	0.5 (≈ 0.925 µM)	–	–	MIC (Streptococcus pyogenes; [27]): < 0.008 µg/mL; MIC (Enterococcus faecium; [28]): 128 µg/mL (≈ 237 µM)
CO/N=C(\C(=O)N[C@@H]1C(=O)N2C(C(=O)[O-])=C(C[n+]3cccc(CC(=O)O)c3)CS[C@H]12)c1csc(N)n1 (stereo in doubt; 17)	–	–	–	–	–	–	–	–	–	–	–	–	–	–	–	–	–	–	6.2	<0.16	MIC (Escherichia coli [2]): <0.008 µg/mL; MIC (Enterobacter cloacae [3]): 0.25 µg/mL (≈ 0.469 µM); MIC (Klebsiella pneumoniae [5]): 32 µg/mL (≈ 60.1 µM); MIC (Escherichia coli [10]): 0.03 µg/mL (≈ 0.0563 µM); MIC (Staphylococcus aureus [12]): 8 µg/mL (≈ 15 µM); MIC (Staphylococcus aureus [15]): 16 µg/mL (≈ 30 µM); MIC (Staphylococcus aureus [16]): 8 µg/mL (≈ 15 µM); MIC (Streptococcus pneumoniae): 0.03 µg/mL (≈ 0.0563 µM); MIC (Serratia marcescens): 0.06 µg/mL (≈ 0.113 µM); MIC (Streptococcus pyogenes): 0.03 µg/mL (≈ 0.0563 µM)
CO/N=C(\C(=O)N[C@@H]1C(=O)N2C(C(=O)[O-])=C(C[n+]3cccc(Cl)c3)CS[C@H]12)c1csc(N)n1	8 (≈ 15.7 µM)	0.06 (≈ 0.118 µM)	0.25 (≈ 0.491 µM)	0.06 (≈ 0.118 µM)	16 (≈ 31.4 µM)	0.06 (≈ 0.118 µM)	> 50	1.6	0.14	0.06 (≈ 0.118 µM)	8 (≈ 15.7 µM)	1 (≈ 1.96 µM)	2 (≈ 3.93 µM)	4 (≈ 7.86 µM)	2 (≈ 3.93 µM)	1 (≈ 1.96 µM)	0.015 (≈ 0.0295 µM)	0.06 (≈ 0.118 µM)	–	–	MIC (Streptococcus pyogenes; [27]): < 0.008 µg/mL; MIC (Enterococcus faecium; [28]): > 128 µg/mL
CO/N=C(\C(=O)N[C@@H]1C(=O)N2C(C(=O)[O-])=C(C[n+]3cccc(CC(=O)O)c3)CS[C@H]12)c1csc(N)n1 (stereo in doubt; 24)	–	–	–	–	–	–	–	–	–	–	–	–	–	–	–	–	–	–	–	0.09	MIC (Escherichia coli [2]): 0.125 µg/mL (≈ 0.235 µM); MIC (Klebsiella pneumoniae [5]): 8 µg/mL (≈ 15 µM); MIC (Klebsiella pneumoniae [6]): 0.06 µg/mL (≈ 0.113 µM); ED50 (Pseudomonas aeruginosa [7]): 17.4 mg/kg; MIC (Pseudomonas aeruginosa [11]): 16 µg/mL (≈ 30 µM); MIC (Pseudomonas aeruginosa [13]): 4 µg/mL (≈ 7.51 µM); MIC (Staphylococcus aureus [15]): 8 µg/mL (≈ 15 µM); MIC (Serratia marcescens): 0.5 µg/mL (≈ 0.939 µM)
CO/N=C(\C(=O)N[C@@H]1C(=O)N2C(C(=O)[O-])=C(C[n+]3ccc(CC(=O)NO)cc3)CS[C@H]12)c1csc(N)n1 (stereo in doubt; 8)	–	–	–	–	–	–	–	–	–	–	–	–	–	–	–	–	–	–	2.5	0.82	MIC (Enterobacter cloacae [3]): 0.5 µg/mL (≈ 0.913 µM); MIC (Escherichia coli [4]): 0.06 µg/mL (≈ 0.11 µM); MIC (Klebsiella pneumoniae [5]): 16 µg/mL (≈ 29.2 µM); ED50 (Pseudomonas aeruginosa [7]): >40 mg/kg; MIC (Pseudomonas aeruginosa [13]): 32 µg/mL (≈ 58.4 µM); MIC (Staphylococcus aureus [16]): 4 µg/mL (≈ 7.3 µM); MIC (Serratia marcescens): 0.5 µg/mL (≈ 0.913 µM)
CO/N=C(\C(=O)N[C@@H]1C(=O)N2C(C(=O)[O-])=C(C[n+]3ccc4c(O)cccc4c3)CS[C@H]12)c1csc(N)n1	16 (≈ 29.6 µM)	0.015 (≈ 0.0277 µM)	0.125 (≈ 0.231 µM)	0.03 (≈ 0.0555 µM)	8 (≈ 14.8 µM)	< 0.008	> 50	2	< 0.03	0.015 (≈ 0.0277 µM)	8 (≈ 14.8 µM)	1 (≈ 1.85 µM)	8 (≈ 14.8 µM)	8 (≈ 14.8 µM)	2 (≈ 3.7 µM)	1 (≈ 1.85 µM)	0.05 (≈ 0.0925 µM)	0.25 (≈ 0.462 µM)	–	–	MIC (Streptococcus pyogenes; [27]): < 0.008 µg/mL; MIC (Enterococcus faecium; [28]): 128 µg/mL (≈ 237 µM)
CO/N=C(\C(=O)N[C@@H]1C(=O)N2C(C(=O)[O-])=C(C[n+]3ccc(CC(=O)NO)cc3)CS[C@H]12)c1csc(N)n1 (stereo in doubt; 21)	–	–	–	–	–	–	–	–	–	–	–	–	–	–	–	–	–	–	3.3	0.07	MIC (Enterobacter cloacae [1]): 16 µg/mL (≈ 29.2 µM); MIC (Enterobacter cloacae [3]): 0.125 µg/mL (≈ 0.228 µM); MIC (Staphylococcus aureus [12]): 2 µg/mL (≈ 3.65 µM); MIC (Pseudomonas aeruginosa [13]): 1 µg/mL (≈ 1.83 µM); MIC (Serratia marcescens): 0.06 µg/mL (≈ 0.11 µM); MIC (Streptococcus pyogenes): 0.015 µg/mL (≈ 0.0274 µM)
CO/N=C(\C(=O)N[C@@H]1C(=O)N2C(C(=O)[O-])=C(C[n+]3ccc(CC(=O)NO)cc3)CS[C@H]12)c1csc(N)n1 (stereo in doubt; 12)	–	–	–	–	–	–	–	–	–	–	–	–	–	–	–	–	–	–	5.3	<0.16	MIC (Enterobacter cloacae [1]): >128 µg/mL; MIC (Escherichia coli [2]): 0.06 µg/mL (≈ 0.11 µM); MIC (Enterobacter cloacae [3]): 4 µg/mL (≈ 7.3 µM); MIC (Escherichia coli [4]): 0.125 µg/mL (≈ 0.228 µM); MIC (Klebsiella pneumoniae [5]): 32 µg/mL (≈ 58.4 µM); MIC (Klebsiella pneumoniae [6]): 0.06 µg/mL (≈ 0.11 µM); ED50 (Pseudomonas aeruginosa [7]): 8.6 mg/kg; MIC (Staphylococcus aureus [12]): 4 µg/mL (≈ 7.3 µM); MIC (Pseudomonas aeruginosa [13]): 4 µg/mL (≈ 7.3 µM); MIC (Pseudomonas aeruginosa [14]): 8 µg/mL (≈ 14.6 µM); MIC (Staphylococcus aureus [15]): 8 µg/mL (≈ 14.6 µM)
CO/N=C(\C(=O)N[C@@H]1C(=O)N2C(C(=O)[O-])=C(C[n+]3ccc(CC(=O)NO)cc3)CS[C@H]12)c1csc(N)n1 (stereo in doubt; 20)	–	–	–	–	–	–	–	–	–	–	–	–	–	–	–	–	–	–	1.4	<0.03	MIC (Enterobacter cloacae [1]): 64 µg/mL (≈ 117 µM); MIC (Klebsiella pneumoniae [5]): 8 µg/mL (≈ 14.6 µM); ED50 (Pseudomonas aeruginosa [7]): 20 mg/kg; MIC (Escherichia coli [10]): 0.06 µg/mL (≈ 0.11 µM); MIC (Pseudomonas aeruginosa [11]): 8 µg/mL (≈ 14.6 µM); MIC (Pseudomonas aeruginosa [14]): 16 µg/mL (≈ 29.2 µM); MIC (Staphylococcus aureus [15]): 16 µg/mL (≈ 29.2 µM); MIC (Staphylococcus aureus [16]): 8 µg/mL (≈ 14.6 µM); MIC (Streptococcus pneumoniae): 0.06 µg/mL (≈ 0.11 µM); MIC (Serratia marcescens): 0.25 µg/mL (≈ 0.457 µM); MIC (Streptococcus pyogenes): 0.06 µg/mL (≈ 0.11 µM); MIC (Enterococcus faecium): >128 µg/mL
